molecular target: T1, OGA (Homo sapiens, UniProt O60502); experiment: OGA cellular assay (ICC detection of O-GlcNAcylated proteins in HEK293 cells inducible for P301L mutant human Tau); format: cell-based; details: HEK293 cells inducible for P301L mutant human Tau, 6 hours incubation; read-out: Cellular hOGA; pEC50 (converted)
T1 construct: HEK293 cells inducible for P301L mutant human Tau (isoform 2N4R) were established at Janssen; endogenous in cells; host or cells: HEK293 cells inducible for P301L mutant human Tau (2N4R)
T1 sequence (O60502 1-916): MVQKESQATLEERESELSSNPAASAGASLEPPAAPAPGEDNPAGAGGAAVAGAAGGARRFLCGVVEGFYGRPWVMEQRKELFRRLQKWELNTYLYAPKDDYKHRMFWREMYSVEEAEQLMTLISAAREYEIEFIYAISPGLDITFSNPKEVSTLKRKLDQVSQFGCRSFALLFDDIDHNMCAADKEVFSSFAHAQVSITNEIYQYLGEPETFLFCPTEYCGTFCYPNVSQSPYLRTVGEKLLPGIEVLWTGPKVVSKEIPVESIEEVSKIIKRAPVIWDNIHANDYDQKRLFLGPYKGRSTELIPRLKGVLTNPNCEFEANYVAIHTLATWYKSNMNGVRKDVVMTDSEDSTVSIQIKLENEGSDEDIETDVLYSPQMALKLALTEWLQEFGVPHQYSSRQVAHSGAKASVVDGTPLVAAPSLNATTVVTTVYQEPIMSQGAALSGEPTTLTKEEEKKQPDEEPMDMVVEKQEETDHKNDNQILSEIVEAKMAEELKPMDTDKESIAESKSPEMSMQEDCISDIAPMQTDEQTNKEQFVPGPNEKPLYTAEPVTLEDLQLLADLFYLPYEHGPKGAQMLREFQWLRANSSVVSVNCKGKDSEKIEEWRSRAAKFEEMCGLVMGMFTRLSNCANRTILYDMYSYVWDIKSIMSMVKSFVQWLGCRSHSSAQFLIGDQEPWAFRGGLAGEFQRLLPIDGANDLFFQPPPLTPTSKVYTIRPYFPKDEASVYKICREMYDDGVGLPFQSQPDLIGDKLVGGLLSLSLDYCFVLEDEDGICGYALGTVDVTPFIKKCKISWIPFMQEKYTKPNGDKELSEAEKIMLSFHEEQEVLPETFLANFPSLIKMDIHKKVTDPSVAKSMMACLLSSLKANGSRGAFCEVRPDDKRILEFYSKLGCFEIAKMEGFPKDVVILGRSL
Procedure: HEK293 cells inducible for P301L mutant human Tau (isoform 2N4R) were established at Janssen. Thiamet-G was used for both plate validation (high control) and as reference compound (reference EC50 assay validation). OGA inhibition is evaluated through the immunocytochemical (ICC) detection of O-GlcNAcylated proteins by the use of a monoclonal antibody (CTD110.6; Cell Signaling, #9875) detecting 0-GlcNAcylated residues as previously described (Dorfmueller et al. 2010 Chemistry & biology, 17:1250). Inhibition of OGA will result in an increase of O-GlcNAcylated protein levels resulting in an increased signal in the experiment. Cell nuclei are stained with Hoechst to give a cell culture quality control and a rough estimate of immediate compounds toxicity, if any. ICC pictures are imaged with a Perkin Elmer Opera Phenix plate microscope and quantified with the provided software Perkin Elmer Harmony 4.1.
Cells were propagated in DMEM high Glucose (Sigma, #D5796) following standard procedures. 2 days before the cell assay cells are split, counted and seeded in Poly-D-Lysine (PDL) coated 96-wells (Greiner, #655946) plate at a cell density of 12,000 cells per cm^2 (4,000 cells per well) in 100 μl of Assay Medium (Low Glucose medium is used to reduce basal levels of GlcNAcylation) (Park et al. 2014 The Journal of biological chemistry 289:13519). At the day of compound test medium from assay plates was removed and replenished with 90 μl of fresh Assay Medium. 10 μl of compounds at a 10fold final concentration were added to the wells. Plates were centrifuged shortly before incubation in the cell incubator for 6 hours. DMSO concentration was set to 0.2%. Medium is discarded by applying vacuum. For staining of cells medium was removed and cells washed once with 100 μl D-PBS (Sigma, #D8537). From next step onwards unless other stated assay volume was always 50 μl and incubation was performed without agitation and at room temperature. Cells were fixed in 50 μl of a 4% paraformaldehyde (PFA, Alpha aesar, #043368) PBS solution for 15 minutes at room temperature. […] Before analysis samples were washed 2 times manually for 5 minutes in ICC base buffer.
Imaging is performed using Perkin Elmer Phenix Opera using a water 20× objective and recording 9 fields per well. Intensity readout at 488 nm is used as a measure of O-GlcNAcylation level of total proteins in wells. To assess potential toxicity of compounds nuclei were counted using the Hoechst staining. IC50-values are calculated using parametric non-linear regression model fitting. As a maximum inhibition Thiamet G at a 200 uM concentration is present on each plate. In addition, a concentration response of Thiamet G is calculated on each plate.

Compound	EC50 [nM]
Cc1cc(C[C@@H]2CCN(C(C)c3nc4nc(C)sc4cc3F)C2)cc(C)n1 (single isomer, unassigned) [Compound 93]	39.8
Cc1cc(C[C@@H]2CCN(C(C)c3nc4nc(C)sc4cc3F)C2)cc(C)n1 (single isomer, unassigned) [Compound 94]	> 1000

Further lines, results first:

EC50 [nM]	Compound
> 1000	Cc1cc(O[C@@H]2CCN(C(C)c3ccc4sc(C)nc4n3)C2)cc(C)n1 (single isomer, unassigned) [Compound 73]
> 1000	Cc1cc(C2CCCN(C(C)c3ccc4sc(C)nc4n3)C2)c(F)c(C)n1 (single isomer, unassigned) [Compound 77]
79.4	Cc1cc(C2CCCN(C(C)c3ccc4sc(C)nc4n3)C2)c(F)c(C)n1 (single isomer, unassigned) [Compound 78]

same assay, conditions: HEK293 cells inducible for P301L mutant human Tau, maximum = Thiamet G 200 uM

Compound	Cellular Emax (%)
Cc1cc(C[C@@H]2CCN(C(C)c3nc4nc(C)sc4cc3F)C2)cc(C)n1 (single isomer, unassigned) [Compound 93]	91
Cc1cc(C[C@@H]2CCN(C(C)c3nc4nc(C)sc4cc3F)C2)cc(C)n1 (single isomer, unassigned) [Compound 94]	2

The next lines start with the values.

Cellular Emax (%)	Compound
−9	Cc1cc(O[C@@H]2CCN(C(C)c3ccc4sc(C)nc4n3)C2)cc(C)n1 (single isomer, unassigned) [Compound 73]
−10	Cc1cc(C2CCCN(C(C)c3ccc4sc(C)nc4n3)C2)c(F)c(C)n1 (single isomer, unassigned) [Compound 77]
80	Cc1cc(C2CCCN(C(C)c3ccc4sc(C)nc4n3)C2)c(F)c(C)n1 (single isomer, unassigned) [Compound 78]

molecular target: T2, recombinant human Meningioma Expressed Antigen 5 (MGEA5), also referred to as O-GlcNAcase (OGA) (Homo sapiens, UniProt O60502); experiment: OGA biochemical assay (inhibition of FM-GlcNAc hydrolysis, fluorescence); details: FM-GlcNAc substrate, 6 h at room temperature, read-out: Enzymatic hOGA, pIC50 (converted)
T2 construct: Full length OGA enzyme was purchased at OriGene (cat #TP322411); purchased OriGene TP322411
T2 sequence (O60502 1-916): T1 sequence (O60502 1-916)
Excerpt: The assay is based on the inhibition of the hydrolysis of fluorescein mono-β-D-N-Acetyl-Glucosamine (FM-GlcNAc) (Mariappa et al. 2015, Biochem J 470:255) by the recombinant human Meningioma Expressed Antigen 5 (MGEA5), also referred to as O-GlcNAcase (OGA). The hydrolysis FM-GlcNAc (Marker Gene technologies, cat #M1485) results in the formation of β-D-N-glucosamineacetate and fluorescein. The fluorescence of the latter can be measured at excitation wavelength 485 nm and emission wavelength 538 nm. An increase in enzyme activity results in an increase in fluorescence signal. Full length OGA enzyme was purchased at OriGene (cat #TP322411). The enzyme was stored in 25 mM Tris.HCl, pH 7.3, 100 mM glycine, 10% glycerol at −20° C. Thiamet G and GlcNAcStatin were tested as reference compounds (Yuzwa et al. 2008 Nature Chemical Biology 4:483; Yuzwa et al. 2012 Nature Chemical Biology 8:393). The assay was performed in 200 mM Citrate/phosphate buffer supplemented with 0.005% Tween-20. 35.6 g Na2HPO4 2H2O (Sigma, #C0759) were dissolved in 1 L water to obtain a 200 mM solution. 19.2 g citric acid (Merck, #1.06580) was dissolved in 1 L water to obtain a 100 mM solution. pH of the sodiumphosphate solution was adjusted with the citric acid solution to 7.2. The buffer to stop the reaction consists of a 500 mM Carbonate buffer, pH 11.0. 734 mg FM-GlcNAc were dissolved in 5.48 mL DMSO to obtain a 250 mM solution and was stored at −20° C. OGA was used at a 2 nM concentration and FM-GlcNAc at a 100 uM final concentration. Dilutions were prepared in assay buffer.
50 nl of a compound dissolved in DMSO was dispensed on Black Proxiplate™ 384 Plus Assay plates (Perkin Elmer, #6008269) and 3 μl fl-OGA enzyme mix added subsequently. Plates were pre-incubated for 60 min at room temperature and then 2 μl FM-GlcNAc substrate mix added. […] Plates were briefly centrifuged for 1 min at 1000 rpm and incubate at room temperature for 6 h. To stop the reaction 5 μl STOP buffer were added and plates centrifuge again 1 min at 1000 rpm. Fluorescence was quantified in the Thermo Scientific Fluoroskan Ascent or the PerkinElmer EnVision with excitation wavelength 485 nm and emission wavelength 538 nm.
For analysis a best-fit curve is fitted by a minimum sum of squares method. From this an IC50 value and Hill coefficient was obtained. High control (no inhibitor) and low control (saturating concentrations of standard inhibitor) were used to define the minimum and maximum values.

Compound	IC50 [nM]
Cc1cc(C[C@@H]2CCN(C(C)c3nc4nc(C)sc4cc3F)C2)cc(C)n1 (single isomer, unassigned) [Compound 93]	3.16
Cc1cc(C[C@@H]2CCN(C(C)c3nc4nc(C)sc4cc3F)C2)cc(C)n1 (single isomer, unassigned) [Compound 94]	1580

Next, values leading:

IC50 [nM]	Compound
> 10000	Cc1cc(O[C@@H]2CCN(C(C)c3ccc4sc(C)nc4n3)C2)cc(C)n1 (single isomer, unassigned) [Compound 73]
2510	Cc1cc(C2CCCN(C(C)c3ccc4sc(C)nc4n3)C2)c(F)c(C)n1 (single isomer, unassigned) [Compound 77]
10	Cc1cc(C2CCCN(C(C)c3ccc4sc(C)nc4n3)C2)c(F)c(C)n1 (single isomer, unassigned) [Compound 78]

same assay, conditions: FM-GlcNAc substrate, maximal effect

Enzymatic Emax (%)	Compound
8	Cc1cc(O[C@@H]2CCN(C(C)c3ccc4sc(C)nc4n3)C2)cc(C)n1 (single isomer, unassigned) [Compound 73]
93	Cc1cc(C2CCCN(C(C)c3ccc4sc(C)nc4n3)C2)c(F)c(C)n1 (single isomer, unassigned) [Compound 78]
76	Cc1cc(C[C@@H]2CCN(C(C)c3nc4nc(C)sc4cc3F)C2)cc(C)n1 (single isomer, unassigned) [Compound 94]

same assay, conditions: FM-GlcNAc substrate, maximal effect, read-out: Enzymatic Emax (%)

Emax [%]	Compound
75	Cc1cc(C2CCCN(C(C)c3ccc4sc(C)nc4n3)C2)c(F)c(C)n1 (single isomer, unassigned) [Compound 77]
92	Cc1cc(C[C@@H]2CCN(C(C)c3nc4nc(C)sc4cc3F)C2)cc(C)n1 (single isomer, unassigned) [Compound 93]

From patent publication US20210115040A1, “OGA INHIBITOR COMPOUNDS” (Janssen Pharmaceutica NV, priority 2018, published 2021)
